The test system of one assay is Panc02. Nature of the assay: Antitumor activity against mouse Panc02 cells implanted in C57BL/6J mouse model assessed as tumor growth inhibition at 10 mg/kg, ip administered every other day for 24 days relative to control. Conditions: Panc02, 576 h, time 24 day, read-out: TGI. It counts as functional.
The next assay relates to PANC-1. Description: Antitumor activity against human PANC-1 xenografted in […] mouse model assessed as tumor growth inhibition at 10 mg/kg, ip administered every other day for 24 days relative to control. The format is functional. The note with it: PANC-1, 576 h, time 24 day, read-out: TGI. In general terms: Xenograft models place foreign cells or tissue in a host animal.

Regarding `Nc1ccn([C@@H]2O[C@H](CO)[C@@H](O)C2(F)F)c(=O)n1` [GEMCITABINE], the inhibition in vivo at 10 mg/kg in the assay on Panc02 was 92.1%; with PANC-1 it was 82.2%.

These data come from ChEMBL document CHEMBL5512657, “Design, synthesis and evaluation of a pyrazolo[3,4-d]pyrimidine derivative as a novel and potent TGFβ1R1 inhibitor” (Eur J Med Chem, 2024).
